{"source": "patent US20230287051A1", "about": "“INHIBITORS OF COMPLEMENT FACTOR C3 AND THEIR MEDICAL USES” (ZP SPV 3 K/S, priority 2020, published 2023)", "note": "Numbered stars: 1 amine (or outer) side, 2 acyl side, 3 side chain; on linkers, the order of the positions; unused ones are H or OH. Bridge positions count the residues as written; N and C are the ends. Square brackets hold non-standard residues; d marks the D form. Side chains are listed from the residue outwards. Peptide text beside a SMILES is read from it. * marks the point of attachment. Trp(1-Me) = Cn1cc(C[C@H](N)C(=O)O)c2ccccc21; C18 diacid = O=C(O)CCCCCCCCCCCCCCCCC(=O)*; γGlu = O=C(O)[C@H](CCC(=O)[*:2])N[*:1]; AEEA = NCCOCCOCC(=O)O; CH2 = C([*:1])[*:2]; Sar = CNCC(=O)O"}
{"test_system": "classical complement pathway", "assay": "In vitro haemolysis assay (inhibition of classical complement pathway)", "format": "cell-based", "details": "human serum, sensitized sheep RBC, 30 minutes at 37° C., absorbance at 405 nm, n=>2; read-out: IC50, inhibition of hemolysis", "method": "The in vitro effect of some of the compounds described herein was assessed by measuring their inhibitory effect of the classical complement pathway in a haemolysis assay.\nBriefly, compounds described herein and reference compounds were dissolved in DMSO and diluted in Tris/Casein Assay Buffer (10 mM Tris, 145 mM NaCl, 0.5 mM MgCl2, 0.15 mM CaCl2, and 0.1% W/V casein, adjusted to pH 7.4) as 9-point serial dilutions in a 96-well plate. Sensitized sheep red blood cells (RBC) coated with rabbit anti-sheep erythrocyte antiserum (Complement Technology, Inc., TX, USA) were washed in Tris/asein Assay Buffer. 50 μL from each well of diluted compound was added to a 96-well plate containing 50 μL diluted human serum (Complement Technology, Inc., TX, USA) and incubated for 15 minutes at room temperature. The serum dilution factor was optimized for every serum batch to obtain 70-90% of maximal haemolysis using the protocol. Then 50 μL sensitized sheep RBCs were added to all wells ([…]).\nAfter 30 minutes of incubation at 37° C. with gentle agitation, the reaction was stopped by addition of 50 μL Tris STOP Buffer per well (10 mM EDTA, 10 mM Tris, 145 mM NaCl adjusted to pH 7.4). The RBCs were then removed by centrifugation and the resulting supernatant measured for hemolysis by absorbance at 405 nm.\nThe response was normalized relative to a positive and negative control (vehicle) to calculate the IC50 (nM) from the concentration response curve using the 4-parameter logistic (4PL) nonlinear model for curve fitting (Table 2). All values are based on n=>2 independent determinations.", "units": {"IC50": "nM"}}
{"smiles": "CC[C@H](C)[C@@H]1NC(=O)[C@@H](NC(=O)[C@H](Cc2ccccc2)NC(=O)[C@H](CCC(=O)O)NC(=O)[C@H](CO)NC(C)=O)CSCSC[C@@H](C(=O)N[C@H](C(=O)NCC(=O)N[C@@H](C)C(=O)N[C@@H](CCC(=O)O)C(=O)N[C@@H](CO)C(N)=O)[C@@H](C)O)NC(=O)[C@H](CCCNC(=N)N)NC(=O)[C@H](Cc2c[nH]cn2)NC(=O)[C@H](CCC(=O)O)NC(=O)CNC(=O)[C@H](Cc2c[nH]c3ccccc23)NC(=O)[C@H](CC(=O)O)NC(=O)[C@H](CCC(N)=O)NC(=O)[C@H](Cc2cn(C)c3ccccc23)NC1=O", "note": "[Compound 1, Ac-SEF[C(1)]I[[1-Me-Trp]QDWGEHR[C(1)]TGAES-[NH2]] (Ac-SEFCI[Trp(1-Me)]QDWGEHRCTGAES-NH2; linker 4-14 via CH2)", "IC50": "< 100"}
{"smiles": "CC[C@H](C)[C@@H]1NC(=O)[C@@H](NC(=O)[C@H](Cc2ccccc2)NC(=O)[C@H](CCC(=O)O)NC(=O)[C@H](CO)NC(C)=O)CSCSC[C@@H](C(=O)N(C)CC(=O)N[C@@H](CCC(=O)O)C(=O)NCC(=O)N[C@@H](CCC(=O)O)C(=O)NCCOCCOCC(=O)NCCOCCOCC(=O)N[C@@H](CCCCNC(=O)CC[C@H](NC(=O)CNC(=O)CC[C@H](NC(=O)CCCCCCCCCCCCCCCCC(=O)O)C(=O)O)C(=O)O)C(N)=O)NC(=O)[C@H](CCCNC(=N)N)NC(=O)[C@H](Cc2c[nH]cn2)NC(=O)[C@H](CCC(=O)O)NC(=O)CNC(=O)[C@H](Cc2c[nH]c3ccccc23)NC(=O)[C@H](CC(=O)O)NC(=O)[C@H](CCC(N)=O)NC(=O)[C@H](Cc2cn(C)c3ccccc23)NC1=O", "note": "[Compound 2, Ac-SEF[C(1)]I[1-Me-Trp]QDWGEHR[C(1)][Sar]EGE[Peg3][Peg3]-K([17-Carboxy-heptadecanoyl][yGlu]G[yGlu])-NH2] (Ac-SEFCI[Trp(1-Me)]QDWGEHRC[Sar]EGE[AEEA][AEEA]K([γGlu-Gly-γGlu-C18 diacid])-NH2; linker 4-14 via CH2)", "IC50": "< 500"}
{"smiles": "CC[C@H](C)[C@@H]1NC(=O)[C@@H](NC(=O)[C@H](Cc2ccccc2)NC(=O)[C@H](CCC(=O)O)NC(=O)[C@H](CO)NC(C)=O)CSCSC[C@@H](C(=O)N(C)CC(=O)N[C@@H](CCC(=O)O)C(=O)NCCOCCOCC(=O)NCCOCCOCC(=O)N[C@@H](CCCCNC(=O)CC[C@H](NC(=O)CNC(=O)CC[C@H](NC(=O)CCCCCCCCCCCCCCCCC(=O)O)C(=O)O)C(=O)O)C(N)=O)NC(=O)[C@H](CCCNC(=N)N)NC(=O)[C@H](Cc2c[nH]cn2)NC(=O)[C@H](CCC(=O)O)NC(=O)CN(C)C(=O)[C@H](Cc2c[nH]c3ccccc23)NC(=O)[C@H](CC(=O)O)NC(=O)[C@H](CCC(N)=O)NC(=O)[C@H](Cc2cn(C)c3ccccc23)NC1=O", "note": "[Compound 7] (Ac-SEFCI[Trp(1-Me)]QDW[Sar]EHRC[Sar]E[AEEA][AEEA]K([γGlu-Gly-γGlu-C18 diacid])-NH2; linker 4-14 via CH2)", "IC50": "< 500"}
{"smiles": "CC[C@H](C)[C@@H]1NC(=O)[C@@H](NC(=O)[C@H](Cc2ccccc2)NC(=O)[C@H](CCC(=O)O)NC(C)=O)CSCSC[C@@H](C(=O)N[C@H](C(=O)N[C@@H](CCC(=O)O)C(=O)N[C@@H](C)C(=O)NCCOCCOCC(=O)NCCOCCOCC(=O)N[C@@H](CCCCNC(=O)CC[C@H](NC(=O)CNC(=O)CC[C@H](NC(=O)CCCCCCCCCCCCCCCCC(=O)O)C(=O)O)C(=O)O)C(N)=O)[C@@H](C)O)NC(=O)[C@H](CCCNC(=N)N)NC(=O)[C@H](Cc2c[nH]cn2)NC(=O)[C@H](CCC(=O)O)NC(=O)CN(C)C(=O)[C@H](Cc2c[nH]c3ccccc23)NC(=O)[C@H](CC(=O)O)NC(=O)[C@H](CCC(N)=O)NC(=O)[C@H](Cc2cn(C)c3ccccc23)NC1=O", "note": "[Compound 12, Ac-EF[C(1)]I[1-Me-Trp]QDW[Sar]EHR[C(1)]TEA[Peg3][Peg3]-K([17-Carboxy-heptadecanoyl][yGlu]G[yGlu])-NH2] (Ac-EFCI[Trp(1-Me)]QDW[Sar]EHRCTEA[AEEA][AEEA]K([γGlu-Gly-γGlu-C18 diacid])-NH2; linker 3-13 via CH2)", "IC50": "< 100"}
{"smiles": "CC[C@H](C)[C@@H]1NC(=O)[C@@H](NC(=O)[C@@H](NC(=O)[C@@H](Cc2ccc(O)cc2)NC(C)=O)[C@@H](C)CC)CSCSC[C@@H](C(=O)N[C@H](C(=O)N[C@@H](CCC(=O)O)C(=O)NCC(=O)N[C@@H](CCC(=O)O)C(=O)NCCOCCOCC(=O)N[C@@H](CCC(=O)O)C(=O)N[C@@H](CO)C(=O)N[C@@H](CCCCNC(=O)CC[C@H](NC(=O)CCCCCCCCCCCCCCCCC(=O)O)C(=O)O)C(N)=O)[C@@H](C)O)NC(=O)[C@H](CCCNC(=N)N)NC(=O)[C@H](Cc2c[nH]cn2)NC(=O)[C@H](CCC(=O)O)NC(=O)CN(C)C(=O)[C@H](Cc2c[nH]c3ccccc23)NC(=O)[C@H](CC(=O)O)NC(=O)[C@H](CCC(N)=O)NC(=O)[C@H](Cc2cn(C)c3ccccc23)NC1=O", "note": "[Compound 15, Ac-{d}YI[C(1)]I[1-Me-Trp]QDW[Sar]EHR[C(1)]TEGE[Peg3]ES-K([17-Carboxy-heptadecanoyl][yGlu])-NH2] (Ac-[dY]ICI[Trp(1-Me)]QDW[Sar]EHRCTEGE[AEEA]ESK([γGlu-C18 diacid])-NH2; linker 3-13 via CH2)", "IC50": "< 250"}
{"smiles": "CC[C@H](C)[C@@H]1NC(=O)[C@@H](NC(=O)[C@H](Cc2ccccc2)NC(=O)[C@@H](NC(=O)[C@H](CCC(N)=O)NC(=O)[C@H](CO)NC(=O)[C@H](CCC(=O)O)NC(C)=O)C(C)C)CSCSC[C@@H](C(=O)N[C@H](C(=O)N[C@@H](CCC(=O)O)C(=O)NCC(=O)N[C@@H](CCC(=O)O)C(=O)NCCOCCOCC(=O)NCCOCCOCC(=O)N[C@@H](CCCCNC(=O)CC[C@H](NC(=O)CNC(=O)CC[C@H](NC(=O)CCCCCCCCCCCCCCCCC(=O)O)C(=O)O)C(=O)O)C(N)=O)[C@@H](C)O)NC(=O)[C@H](CCCNC(=N)N)NC(=O)[C@H](Cc2c[nH]cn2)NC(=O)[C@H](CCC(=O)O)NC(=O)CN(C)C(=O)[C@H](Cc2c[nH]c3ccccc23)NC(=O)[C@H](CC(=O)O)NC(=O)[C@H](CCC(N)=O)NC(=O)[C@H](Cc2cn(C)c3ccccc23)NC1=O", "note": "[Compound 23, Ac-ESQVF[C(1)]I[1-Me-Trp]QDW[Sar]EHR[C(1)]TEGE[Peg3][Peg3]-K([17-Carboxy-heptadecanoyI][yGlu]G[yGlu])-NH2] (Ac-ESQVFCI[Trp(1-Me)]QDW[Sar]EHRCTEGE[AEEA][AEEA]K([γGlu-Gly-γGlu-C18 diacid])-NH2; linker 6-16 via CH2)", "IC50": "< 100"}
{"smiles": "CC[C@H](C)[C@@H]1NC(=O)[C@@H](NC(=O)[C@H](Cc2ccccc2)NC(=O)[C@@H](NC(=O)[C@H](CCC(N)=O)NC(=O)[C@H](CCC(=O)O)NC(=O)[C@H](CO)NC(=O)[C@H](CCC(=O)O)NC(C)=O)C(C)C)CSCSC[C@@H](C(=O)N[C@H](C(=O)N[C@@H](CCC(=O)O)C(=O)NCC(=O)N[C@@H](CCC(=O)O)C(=O)NCCOCCOCC(=O)NCCOCCOCC(=O)N[C@@H](CCCCNC(=O)CC[C@H](NC(=O)CNC(=O)CC[C@H](NC(=O)CCCCCCCCCCCCCCCCC(=O)O)C(=O)O)C(=O)O)C(N)=O)[C@@H](C)O)NC(=O)[C@H](CCCNC(=N)N)NC(=O)[C@H](Cc2c[nH]cn2)NC(=O)[C@H](CCC(=O)O)NC(=O)CN(C)C(=O)[C@H](Cc2c[nH]c3ccccc23)NC(=O)[C@H](CC(=O)O)NC(=O)[C@H](CCC(N)=O)NC(=O)[C@H](Cc2cn(C)c3ccccc23)NC1=O", "note": "[Compound 24, Ac-ESEQVF[C(1)]I[1-Me-Trp]QDW[Sar]EHR[C(1)]TEGE[Peg3][Peg3]-K([17-Carboxy-heptadecanoyl][yGlu]G[yGlu])-NH2] (Ac-ESEQVFCI[Trp(1-Me)]QDW[Sar]EHRCTEGE[AEEA][AEEA]K([γGlu-Gly-γGlu-C18 diacid])-NH2; linker 7-17 via CH2)", "IC50": "< 100"}
{"smiles": "CC[C@H](C)[C@@H]1NC(=O)[C@@H](NC(=O)[C@H](Cc2ccccc2)NC(=O)[C@H](C)NC(=O)[C@H](CCC(N)=O)NC(=O)[C@H](CCC(=O)O)NC(=O)[C@H](CO)NC(C)=O)CSCSC[C@@H](C(=O)N[C@H](C(=O)N[C@@H](CCC(=O)O)C(=O)NCC(=O)N[C@@H](CCC(=O)O)C(=O)NCCOCCOCC(=O)NCCOCCOCC(=O)N[C@@H](CCCCNC(=O)CC[C@H](NC(=O)CNC(=O)CC[C@H](NC(=O)CCCCCCCCCCCCCCCCC(=O)O)C(=O)O)C(=O)O)C(N)=O)[C@@H](C)O)NC(=O)[C@H](CCCNC(=N)N)NC(=O)[C@H](Cc2c[nH]cn2)NC(=O)[C@H](CCC(=O)O)NC(=O)CN(C)C(=O)[C@H](Cc2c[nH]c3ccccc23)NC(=O)[C@H](CC(=O)O)NC(=O)[C@H](CCC(N)=O)NC(=O)[C@H](Cc2cn(C)c3ccccc23)NC1=O", "note": "[Compound 25, Ac-SEQAF[C(1)]I[1-Me-Trp]QDW[Sar]EHR[C(1)]TEGE[Peg3][Peg3]-K([17-Carboxy-heptadecanoyl][yGlu]G[yGlu])-NH2] (Ac-SEQAFCI[Trp(1-Me)]QDW[Sar]EHRCTEGE[AEEA][AEEA]K([γGlu-Gly-γGlu-C18 diacid])-NH2; linker 6-16 via CH2)", "IC50": "< 100"}
